In data set [1] the target is Alpha-1 receptor (rat brain cortical membrane preparation). Nature of the data set: Alpha-1 receptor binding ([3H]-prasosin). The note with it: rat brain cortical membranes, [3H]-prasosin 0.5 nM; read-out: Alfa-1 IC-50.
Experimental: The non-specific binding was determined in the presence of 10 μM phentolamine.
Data set [2] deals with T1, D2 receptor (rat brain striatal membrane preparation) (Rattus norvegicus, UniProt P61169).
T1 construct: on rat brain striatal membrane preparation; from tissue; host or cells: rat brain striatum membranes
Nature of the data set: D2 receptor binding ([3H]-spiperone). The note with it: rat brain striatal membranes, [3H]-spiperone 0.6 nM; read-out: D2 IC-50.
Experimental: The non-specific binding was determined in the presence of 1 μM (+)-butaclamol.

The target of data set [3] is T2, rat recombinant D3 receptors (expressed in Sf9 cells) (Rattus norvegicus, UniProt P19020).
T2 construct: purchased Packard BioScience, BioSignal Packard Inc. 6110139; host or cells: Sf9 cells
T2 sequence (P19020 whole entry): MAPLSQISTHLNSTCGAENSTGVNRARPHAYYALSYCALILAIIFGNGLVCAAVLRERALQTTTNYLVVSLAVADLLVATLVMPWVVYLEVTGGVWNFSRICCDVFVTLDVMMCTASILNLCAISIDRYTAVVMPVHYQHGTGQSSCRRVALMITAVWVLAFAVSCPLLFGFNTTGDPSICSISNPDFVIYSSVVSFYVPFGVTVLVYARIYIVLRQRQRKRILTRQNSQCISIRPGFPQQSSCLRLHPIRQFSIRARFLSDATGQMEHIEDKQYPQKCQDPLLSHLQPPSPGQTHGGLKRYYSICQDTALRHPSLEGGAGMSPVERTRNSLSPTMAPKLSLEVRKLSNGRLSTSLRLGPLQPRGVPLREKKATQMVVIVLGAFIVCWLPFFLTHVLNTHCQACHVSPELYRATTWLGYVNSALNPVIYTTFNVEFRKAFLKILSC
Nature of the data set: D3 receptor binding ([3H]-spiperone). The note with it: [3H]-spiperone 0.85 nM, read-out: D3 IC-50.

Some results are limits rather than exact numbers.

T1 sequence (P61169 whole entry): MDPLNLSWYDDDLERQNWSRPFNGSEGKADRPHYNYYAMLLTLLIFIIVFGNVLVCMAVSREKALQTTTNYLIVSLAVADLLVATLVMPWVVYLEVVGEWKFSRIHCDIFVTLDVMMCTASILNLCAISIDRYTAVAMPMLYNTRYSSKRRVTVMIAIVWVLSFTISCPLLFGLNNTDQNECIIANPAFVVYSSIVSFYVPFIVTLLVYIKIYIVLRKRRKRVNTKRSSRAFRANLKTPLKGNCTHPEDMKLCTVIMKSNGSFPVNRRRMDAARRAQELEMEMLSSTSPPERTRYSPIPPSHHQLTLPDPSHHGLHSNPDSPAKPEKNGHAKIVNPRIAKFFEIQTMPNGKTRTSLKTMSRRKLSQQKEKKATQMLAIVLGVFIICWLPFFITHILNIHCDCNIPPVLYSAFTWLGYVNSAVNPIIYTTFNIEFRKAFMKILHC

Consider `CCCNC(=O)N[C@H]1CC[C@H](CCN2CCN(c3cccc(Cl)c3Cl)CC2)CC1` [Compound 4, trans-1-{4-[2-[4-(2,3-dichlorophenyl)-piperazin-1-yl]-ethyl]-cyclohexyl}-3-propyl-urea], for which the melting point – broadly, the temperature of the solid-liquid transition – is 218 to 220 °C. The IC50 in data set [1] is over 200 nM. The IC50 in data set [2] was in the range of 10 to 50 nM. Moreover, in data set [3], the IC50 is under 1 nM.
Taken in the same sequence, the figures for `CCNC(=O)N[C@H]1CC[C@H](CCN2CCCN(c3cccc(Cl)c3Cl)CC2)CC1` [Compound 6, trans-1-{4-[2-[4-(2,3-dichlorophenyl)-hexahydro[1,4]diazepin-1-yl]-ethyl]-cyclohexyl}-3-ethyl-urea] were 115 to 118 °C, over 200 nM, 10 to 50 nM and under 1 nM.
